In PubChem BioAssay AID2366 (The Scripps Research Institute Molecular Screening Center, 2010):
Activity calls are given as the source filed them.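 Rule for the calls: active = compounds picked for the later follow-up tests because of their potency and selectivity; inactive = compounds skipped in follow-up as weaker or less selective.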

target: Protein phosphatase methylesterase 1 (Homo sapiens) (UniProt Q9Y570); assay: PME-1 inhibitor potency by in-gel ABPP, dose response, selectivity assay for PME-1 inhibitor project, cell lysate, mouse brain cytosol, FP-rhodamine (AID 2366)
Sequence (Q9Y570 whole entry, looked up): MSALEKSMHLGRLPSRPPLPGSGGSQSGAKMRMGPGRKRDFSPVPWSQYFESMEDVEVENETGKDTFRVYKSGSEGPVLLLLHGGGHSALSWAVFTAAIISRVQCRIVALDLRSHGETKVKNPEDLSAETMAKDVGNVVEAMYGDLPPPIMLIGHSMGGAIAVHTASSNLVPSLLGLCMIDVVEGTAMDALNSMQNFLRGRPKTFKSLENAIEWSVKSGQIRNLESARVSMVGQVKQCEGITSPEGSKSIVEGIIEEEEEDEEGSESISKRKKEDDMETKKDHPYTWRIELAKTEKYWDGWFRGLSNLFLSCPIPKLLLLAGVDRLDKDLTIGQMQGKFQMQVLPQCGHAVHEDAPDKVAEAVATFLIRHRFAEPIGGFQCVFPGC

| IC50 | SMILES |
| --- | --- |
| 0.64 µM | N#C/C(=C\c1cccn1S(=O)(=O)c1cccc(C#N)c1)S(=O)(=O)c1ccc(F)cc1 |
| 2.5 µM | CS(=O)(=O)/C(C#N)=C/c1cccn1S(=O)(=O)c1cccc(C#N)c1 |
| 3 µM | CS(=O)(=O)/C(C#N)=C/c1cccn1S(=O)(=O)c1ccc([N+](=O)[O-])cc1 |
| 4 µM | CS(=O)(=O)/C(C#N)=C/c1cccn1S(=O)(=O)c1ccc(C#N)cc1 |
| > 20 µM (inactive) | CS(=O)(=O)/C(C#N)=C/c1cccn1S(=O)(=O)c1c(F)c(F)c(F)c(F)c1F |
| 10.8 µM | CS(=O)(=O)/C(C#N)=C/c1cccn1S(=O)(=O)c1ccccc1 |
| 6.8 µM | CC(C)(C)S(=O)(=O)/C(C#N)=C/c1cccn1S(=O)(=O)c1ccccc1 |
| > 20 µM (inactive) | N#C/C(=C\c1cccn1S(=O)(=O)c1ccccc1)S(=O)(=O)c1ccccc1 |
| 3.4 µM | CC(C)(C)S(=O)(=O)/C(C#N)=C/c1cccn1S(=O)(=O)c1cccc(C#N)c1 |
